Measurements: patent US10350271B2, “Lipidated peptides for lowering blood glucose” (USTAV ORGANICKE CHEMIE A BIOCHEMIE AKADEMIE VED CR, V.V.I., priority 2014, dated 2019)
Marks after values point to notes of the source that are not given here.

Key:
Format in all cases: in vivo
[1] = test system: C57BL/6 mice; experiment: IPGTT after acute administration in lean mice; settings: lean C57BL/6 mice, 5 mg/kg SC, vs saline
Description: IPGTT was performed in overnight fasted male C57BL/6 mice.
Intraperitoneal glucose tolerance test (IPGTT) was performed in overnight fasted male C57BL/6 mice (AnLab, Praha, Czech Republic) at age of 12 weeks. […] 15 min later, 2 g/kg glucose solution was administered IP. Blood glucose was then measured at 15, 30, 60, 120 min from glucose injection using a glucometer (Glucocard, Arkray, Kyoto, Japan).
IPGTT was performed in overnight fasted male C57BL/6 mice, Blood glucose levels were measured at the beginning and after subcutaneous (SC—beneath the skin) administration of palm-PrRP31 (5 mg/kg SC) or saline (n=7) at time 30, 60, 90 and 120 min post injection. […] Regarding the error bars in the graphs *P<0.05, **P<0.01. IPGTT glucose levels were lower in mice given analog 43 instead of saline, particularly early in the experiment. Total area under the curve was also clearly lower in analog 43 mice.

[2] = test system: C57BL/6 mice; experiment: Food intake in fasted mice after SC injection; settings: 5 mg/kg SC, 45 min after injection
In short: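 Saline, PrRP or a lipidated analog was injected SC (1-10 mg/kg) after a 17 h fast with free water, animals housed singly.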

[3] = test system: obese diabetic monosodium-glutamate (MSG) mice; experiment: IPGTT after 10 days administration to obese diabetic MSG mice; settings: 5 mg/kg SC twice a day for 10 days, vs saline
Description: Mice were subjected to a 10-day food intake experiment. […] After 10 days of treatment, mice were fasted overnight and IPGTT was performed. After initial blood glucose measurement, 2 g/kg glucose solution was administered intraperitoneally (IP).
Obese mice were created using MSG. L-glutamic acid sodium salt hydrate (Sigma, St. Louis, USA) was subcutaneously (SC) administered to newborn male mice, at a dose of 4 mg/g body weight, daily from postnatal days 2 to 8 to induce obesity. The MSG treated mice used for experiments were 24 weeks old. Age related mice were used as controls. Obese and control mice were placed into separate cages with free access to food and water. The following week, mice were subjected to a 10-day food intake experiment. […] Consumption of the St-1 diet and the body weight of the mice were simultaneously followed. After 10 days of treatment, mice were fasted overnight and IPGTT was performed. After initial blood glucose measurement, 2 g/kg glucose solution was administered IP.
Blood glucose was then measured at 15, 30, 60, 120 and 180 min post injection as described above.

[4] = test system: Wistar rats; experiment: IPGTT after acute administration in lean rats; settings: fasted male Wistar rats, 5 mg/kg, vs saline
Description: IPGTT was performed in overnight fasted male Wistar rats.
IPGTT was performed in overnight fasted male Wistar rats (Antab, Praha, Czech Republic) at age of 14 weeks. […] 15 min later, 2 g/kg glucose solution was administered IP. Blood glucose was then measured at 15, 30, 60, and 120 min from glucose injection.
FIG. 4 illustrates a plot of glucose levels after acute administration of palm-PrRP31 in rats. IPGTT was performed in overnight fasted male Wistar rats.

[5] = test system: ZDF diabetic rats; experiment: 21 days repeated administration in diabetic ZDF rats (food intake, OGTT, metabolic parameters)
Description: Rats were subjected to a 21-day food intake experiment. ZDF rats were IP injected with either phosphate-buffered saline pH6 (control) or compound 43 or 52 at a dose of 1 and 5 mg/kg (n=8), twice a day for 21 days. After 21 days of treatment, rats were fasted overnight and OGTT was performed. After initial blood glucose measurement, 2 g/kg glucose solution was administered by oral gavage. Blood glucose was then measured at 15, 30, 60, 90, 120 and 180 min.
NMRI mice, C57BL/6 mice, and Wistar rats (AnLab, Prague, Czech Republic) were housed in a temperature of 23° C. and a daily cycle of 12 h light and dark (light from 6:00). They were given ad libitum water and a standard chow diet that contained 25, 9 and 66% of calories of protein, fat and carbohydrate respectively. Energy content of the feed was 3.4 kcal/g (St-1, Mlýn Kocanda, Czech Republic). Db/db mice and their controls (C57BL/6 background) were obtained from Taconic (Denmark), housed under the same conditions as described above, and fed by Altromin (Taconic, Denmark). ZDF-Lepr^fa/Crl, diabetic fa/fa male rats were obtained from Charles River (France), housed under same conditions as described above, and fed with a Purina 5008 diet (IPS Product Supplies Limited, UK). All experiments followed the ethical guidelines for animal experiments and the law of the Czech Republic Nr. 246/1992.
The ZDF rats were treated with vehicle or analogs 43 and 52 (1 and 5 mg/kg IP) dissolved in phosphate buffered saline, pH 6, twice daily for 21 days and sacrificed on day 22. Food intake was measured daily up to day 22. Leptin, insulin, cholesterol and HbA1c levels were measured on day 21. Glucose tolerance test (OGTT) was also performed on day 21.
Rats were subjected to a 21-day food intake experiment. ZDF rats were IP injected with either phosphate-buffered saline pH6 (control) or compound 43 or 52 at a dose of 1 and 5 mg/kg (n=8), twice a day for 21 days. After 21 days of treatment, rats were fasted overnight and OGTT was performed. After initial blood glucose measurement, 2 g/kg glucose solution was administered by oral gavage. Blood glucose was then measured at 15, 30, 60, 90, 120 and 180 min. […] The statistical significance, denoted by the asterisk (*), was *P<0.05.

[6] = ZDF rats, 1 mg/kg IP twice daily
[7] = ZDF rats, 5 mg/kg IP twice daily
[8] = ZDF rats, day 21, 1 mg/kg IP twice daily
[9] = ZDF rats, day 21, 5 mg/kg IP twice daily

Structure (SMILES): CCCCCCCCCCCCCCCC(=O)N[C@@H](CO)C(=O)N[C@@H](CCCNC(=N)N)C(=O)N[C@H](C(=O)N[C@@H](Cc1c[nH]cn1)C(=O)N[C@@H](CCCNC(=N)N)C(=O)N[C@@H](Cc1c[nH]cn1)C(=O)N[C@@H](CO)C(=O)N[C@@H](CCSC)C(=O)N[C@@H](CCC(=O)O)C(=O)N[C@H](C(=O)N[C@@H](CCCNC(=N)N)C(=O)N[C@H](C(=O)N1CCC[C@H]1C(=O)N[C@@H](CC(=O)O)C(=O)N[C@H](C(=O)N[C@@H](CC(N)=O)C(=O)N1CCC[C@H]1C(=O)N[C@@H](C)C(=O)N[C@@H](Cc1c[nH]c2ccccc12)C(=O)N[C@@H](Cc1ccc(O)cc1)C(=O)N[C@@H](C)C(=O)N[C@@H](CO)C(=O)N[C@@H](CCCNC(=N)N)C(=O)NCC(=O)N[C@H](C(=O)N[C@@H](CCCNC(=N)N)C(=O)N1CCC[C@H]1C(=O)N[C@H](C(=O)NCC(=O)N[C@@H](CCCNC(=N)N)C(=O)N[C@@H](Cc1ccccc1)C(N)=O)C(C)C)[C@@H](C)CC)[C@@H](C)CC)[C@@H](C)O)[C@@H](C)CC)[C@@H](C)O [Analog 43]
- IPGTT glucose levels [1]: lower
- IPGTT total area under the curve [1]: clearly lower
- Food intake in mice % of saline-treated group [2]: 30%
- IPGTT area under the curve through 180 min [3]: substantially lower
- IPGTT blood glucose levels [3]: lower
- Large spike in blood glucose in IPGTT [4]: did not
- Food intake in free fed ZDF diabetic rats ([5]; 5 mg/kg IP twice daily, vs vehicle): significantly lowered
- Cumulative food intake Day 1 [5, 6]: 40.8 ± 2.1 g
- Cumulative food intake Day 1-7 [5, 6]: 299.9 ± 8.9 g
- Cumulative food intake Day 1-14 [5, 6]: 572.5 ± 15.5 g
- Cumulative food intake Day 1-21 [5, 6]: 817.7 ± 22.1 g
- Cumulative food intake Day 1 [5, 7]: 34.2 g
- Cumulative food intake Day 1-7 [5, 7]: 273.3 ± 20.4** g
- Cumulative food intake Day 1-14 [5, 7]: 528.9 ± 36.0** g
- Cumulative food intake Day 1-21 [5, 7]: 768.2 g
- OGTT blood glucose levels ([5]; ZDF rats, 5 mg/kg twice daily for 21 days): significant lowering
- Blood cholesterol levels ([5]; ZDF rats, 1 and 5 mg/kg twice daily, vs controls): significantly lowered
- Cholesterol [5, 8]: 3.10 ± 0.12* mmol/l
- Insulin [5, 8]: 267.69 ± 40.69 pmol/L
- Leptin [5, 8]: 13297 ± 921 pg/mL
- Cholesterol [5, 9]: 2.91 ± 0.12** mmol/l
- Insulin [5, 9]: 271.84 ± 34.00 pmol/L
- Leptin [5, 9]: 16560 ± 4843 pg/mL
